From patent publication US20150038589A1, “Nutritional Product Comprising a Biguanide” (priority 2011, published 2015)

How the values were obtained:
[1] = Cookie comprising metformin consumed by human volunteers; blood samples; type: in vivo; conditions: one cookie (250 mg metformin); for concentration at 1 h / concentration at 2 h / concentration at 4 h / concentration at 0 h: human, blood, oral, 250 mg, empty stomach; for concentration at 1 h: 1 hr after consumption; for concentration at 2 h: 2 hrs after consumption; for concentration at 4 h: 4 hrs after consumption; for concentration at 0 h: before consumption
Method: A cookie dough was prepared comprising 1000 mg fine-ground metformin per 100 g conventional cookie dough, by mixing fine-ground metformin into the dough. 40 droplets of lemon juice per 100 g dough were added to the dough comprising the metformin, in order to neutralise the bitter taste of the metformin. Thereafter, the dough was divided in pieces of 25 g, from which pieces cookies were baked in a conventional way.
Human volunteers each consumed one cookie (providing 250 mg metformin) on an empty stomach. Blood samples were taken before consumption, 1 hour after consumption, 2 hours after consumption and 4 hours after consumption.

[2] = Stability test of metformin in yoghurt (pH and metformin content); type: physicochemical
Method: Yoghurt is prepared as described in Example 3. A batch comprising no metformin (placebo), a batch comprising 200 mg metformin per 100 gram (low dosage) and a batch comprising 360 mg metformin (high dosage) were made.
Part of the batches were stored in a fridge (about 4° C.), other parts at room temperature (about 20° C.). Product stability was determined by measuring pH and the metformin content (measured amount as a percentage of the added amount), weekly for a period of 35 days. […] Stability at room temperature was determined for only 35 days. Tables 6 and 7 show the measured amount of metformin in both products comprising metformin (relative to calculated amount=100%). No metformin was measured in the placebo.

[3] = cited from earlier work
[4] = Clinical test: double-blind trial of yoghurt drink with added metformin, 6 weeks; conditions: for Hyperinsulinaemia Internationale Unit / fasting glucose: change after 42 days
[5] = up to 4 hours after consumption
[6] = Trial group I (n = 6), 250 mg metformin/day in yoghurt, after 42 days
[7] = Trial group I (n = 6), 250 mg metformin/day in yoghurt
[8] = Trial group II (n = 4), 450 mg metformin/day in yoghurt, after 42 days
[9] = Trial group II (n = 4), 450 mg metformin/day in yoghurt
[10] = subjects with the product of the invention, after 42 days

CN(C)C(=N)NC(=N)N [metformin, N,N-dimethylimidodicarbonimidic diamide]
concentration at 1 h ([1]; subject 1): < 500 ng/mL
concentration at 2 h ([1]; subject 1): 700 ng/mL
concentration at 4 h ([1]; subject 1): 800 ng/mL
concentration at 0 h ([1]; subject 1): < 500 ng/mL
concentration at 1 h ([1]; subject 2): < 500 ng/mL
concentration at 2 h ([1]; subject 2): < 500 ng/mL
concentration at 4 h ([1]; subject 2): 600 ng/mL
concentration at 0 h ([1]; subject 2): < 500 ng/mL
negative side-effects ([1]; during the experiment): no negative side-effects were observed
glucose levels in blood samples [1, 5]: no significant changes
lipid levels in blood samples [1, 5]: no significant changes
degradation of metformin in a fermented (acidic) product ([2]; 28 days (room temperature) or 35 days (refrigerator temperature)): no substantial degradation
storage stability in a nutritional product ([2]; metformin included in a nutritional product): at least 5 weeks
subjects with a reduction in B12 levels in blood ([3]; conventional dosage form such as a tablet): about 30%
subjects suffering from stomach complaints and diarrhoea ([3]; conventional pharmaceutical composition comprising biguanide (metformin)): roughly 30%
insulin resistance improvement (HOMA-2) [4, 6]: −0.13
side-effects: abdominal pain (number of subjects) [4, 6]: 0
side-effects: diarrhoea (number of subjects) [4, 6]: 0
side-effects: fatigue (number of subjects) [4, 6]: 0
side-effects: reflux (number of subjects) [4, 6]: 0
side-effects: stomach pain (number of subjects) [4, 6]: 1
side-effects: vertigo (number of subjects) [4, 6]: 0
Δ waist size [4, 6]: −2.0 cm
Δ weight [4, 6]: -1.9 kg
Hyperinsulinaemia Internationale Unit [4, 7]: −1.4 Internationale Unit
fasting glucose [4, 7]: -0.12 mmol/L
insulin resistance improvement (HOMA-2) [4, 8]: −3.9
side-effects: abdominal pain (number of subjects) [4, 8]: 0
side-effects: diarrhoea (number of subjects) [4, 8]: 0
side-effects: fatigue (number of subjects) [4, 8]: 0
side-effects: reflux (number of subjects) [4, 8]: 0
side-effects: stomach pain (number of subjects) [4, 8]: 0
side-effects: vertigo (number of subjects) [4, 8]: 0
Δ waist size [4, 8]: −3.1 cm
Δ weight [4, 8]: -1.9 kg
Hyperinsulinaemia Internationale Unit [4, 9]: −3.9 Internationale Unit
fasting glucose [4, 9]: -0.68 mmol/L
concentration at 24 h ([4]; both, human, blood, oral): < 250 ng/mL
subjects indicating a reduced appetite ([4]; out of 10 subjects in the trial group (1 in the placebo group)): 4
reduction in waist size compared to the placebo [4, 10]: 2-3 fold
weight loss compared to the placebo [4, 10]: 3 fold
blood HDL concentration change ([4]; trial group I, after 42 days): No change
decrease in pulse ([4]; trial group I, after 42 days): −6
blood HDL concentration change ([4]; trial group II (450 mg metformin per day), after 42 days): +0.12
decrease in pulse ([4]; trial group II, after 42 days): −2
